The record followed here is patent US20130281313A1, “PROGNOSTIC AND/OR PREDICTIVE BIOMARKERS AND BIOLOGICAL APPLICATIONS THEREOF” (INSTITUT GUSTAVE ROUSSY, priority 2010, published 2013).

Series [1] concerns A549 cells. Briefly: Cytofluorometric assessment of cell death (DiOC6(3)/PI co-staining). In kind it is cell-based, human. As for the experimental part: Unless otherwise specified, chemicals were purchased from Sigma-Aldrich (St. Louis, USA), culture media and supplements for cell culture from Gibco-Invitrogen (Carlsbad, USA) and plasticware from Corning (Corning, USA). […] Orlistat (Xenical®) was obtained from Roche (Basel, Switzerland). […] Undissolved material was removed by two sequential rounds of centrifugation at 12,000 G (5 min, room temperature, RT), supernatants were collected and stored at −80° C. under protection from light until use. In low-throughput experiments, all cell lines were treated with 2.5 mM pyridoxine (PN), exception made for A549 cells that received 5 mM PN.
To avoid depleting the siRNA library of selected sequences, siRNAs for validation experiments were purchased as custom molecules from Sigma-Aldrich. For low-throughput experiments, (see below for the transfection protocols employed in the siRNA screen), siRNA were transfected in A549 cells with Oligofectamine™ reagent (Invitrogen), following the manufacturer's instructions. Transfection with a non-targeting siRNA (siUNR) was employed as a negative control condition. Forty-eight hours after transfection, siRNA-mediated target downregulation was assessed by immunoblotting (see below).
All cytofluorometric determinations were carried out a FACSCalibur or a FACScan cytofluorometer (BD Biosciences, San Jose, USA) equipped with a 70 μm nozzle.
First line statistical analysis of cytofluorometric results was performed by using the CellQuest™ software (BD Biosciences), by gating on the events characterized by normal forward scatter and side scatter parameters. Apoptosis- and cell cycle-related data were further analyzed with Microsoft Excel (Microsoft Co., Redmond, USA) and statistical significance was assessed by means of two-tailed Student's t test (p<0.05).

Series [2] relates to A549 cells xenografted into immunodeficient Swiss nude mice. Description: Tumor graft model: A549 cells in Swiss nude mice. Type of series: in vivo, mouse. The conditions noted are these: A549 cells on Swiss nude mice; 5 mg/kg intraperitoneal CDDP + intraperitoneal Orlistat (240 mg/Kg), three times a week. As for the experimental part:
(§1) C57BL/6 (H-2b) and Swiss Nude mice were obtained from Janvier (Le Genest St. Isle, France) and Charles River, respectively. Animals were maintained in pathogen-free conditions, and all experiments were carried out (upon approval by the local ethical committee) according to the Federation of European Laboratory Animal Science Association (FELASA) guidelines. Mice were used between 6 and 12 weeks of age. During the experiments, animals were subjected to artificial light cycle (12 h lights on-12 h lights off) and allowed food and drink ad libitum.
(§2) 5×10^5 LLC and A549 cells were subcutaneously xenografted (in 100 μL sterile PBS) in 25-30 immunocompetent (C57BL/6) and immunodeficient (Swiss Nude) mice, respectively. When the surface of tumors reached 25-40 mm^2, n=4-6 mice were assigned to either of 4 different treatment groups: group 1=100 μL intraperitoneal PBS; group 2=5 mg/kg intraperitoneal CDDP in 100 μL PBS; group 3=240 mg/Kg intraperitoneal Orlistat® in 40 μL PBS; group 4=5 mg/kg intraperitoneal CDDP in 100 μL PBS+intraperitoneal Orlistat® in 40 μL PBS. Treatments were administered three times a week (day 1, 3 and 5; day 8=day 1). Tumor size was monitored on the day of treatment by means of a standard calliper and tumor volume was extrapolated as previously described {Streit, 1999}. […] Statistical significance was evaluated by two-way ANOVA.

In series [3] the test system is murine Lewis lung carcinoma (LLC) cells in immunocompetent C57BL/6 mice. Description: Tumor graft model: LLC cells in C57BL/6 mice. Type of series: in vivo, mouse. The note with it: 5 mg/kg intraperitoneal CDDP + intraperitoneal Orlistat (240 mg/Kg), three times a week. The procedure:
as §1, §2

Molecules are shown by their SMILES.

Consider `CCCCCCCCCCC[C@@H](C[C@@H]1OC(=O)[C@H]1CCCCCC)OC(=O)[C@H](CC(C)C)NC=O` [Orlistat®, Orlistat], for which the “cytotoxicity of CDDP upon pharmacological inhibition of LIPC” value in series [1] (A549 cells in vitro, 25 or 75 μM CDDP) was “enhanced the cytotoxiticy of CDDP against A549 cells in vitro”. The “CDDP-induced killing, LIPC inhibition (orlistat) combined with IL6R inhibition” value in series [1] (A549 cells, followed by CDDP, DiOC6(3)/PI co-staining) is on record as “synergistically sensitized to CDDP-induced killing”. Besides, the “antitumor effects of CDDP-based chemotherapy (tumor growth)” value in series [2] and in series [3] was “augmented the antitumor effects of CDDP-based chemotherapy in vivo” each time.
